Legend:
[1] = tested on: Streptococcus pneumoniae; assay: Bacterial susceptibility testing in liquid media (MIC); type: cell-based; parameters: unit not given here; details: lowest concentration reducing growth by 80% or more; 37 degrees C., 24 hrs
Description: Compounds were tested for antimicrobial activity by susceptibility testing in liquid media. Compounds were dissolved in dimethylsulfoxide and tested in 10 doubling dilutions in the susceptibility assays. The organisms used in the assay were grown overnight on suitable agar media and then suspended in a liquid medium appropriate for the growth of the organism. The suspension was a 0.5 McFarland and a further 1 in 10 dilution was made into the same liquid medium to prepare the final organism suspension in 100 μL. Plates were incubated under appropriate conditions at 37 degrees C. for 24 hrs prior to reading. The Minimum Inhibitory Concentration was determined as the lowest drug concentration able to reduce growth by 80% or more.

| MIC [1] | melting point | SMILES |
| --- | --- | --- |
| 50 |  | COC1CN(c2ncc(C(=O)O)s2)CCC1n1ccc2c(Cl)c(C)[nH]c2c1=O (stereo not drawn) [Example 22, 2-[3,4-cis-4-(3-Chloro-2-methyl-7-oxo-1,7-dihydro-6H-pyrrolo[2,3-c]pyridin-6-yl)-3-methoxypiperidin-1-yl]-1,3-thiazole-5-carboxylic acid] |
|  | > 345 °C (dec.) | COC(=O)c1cnc(N2CCC(n3c(=O)[nH]c4c(C#N)c(C)[nH]c4c3=O)CC2)s1 [Example 1, Methyl 2-[4-(7-cyano-6-methyl-2,4-dioxo-1,2,4,5-tetrahydro-3H-pyrrolo[3,2-d]pyrimidin-3-yl)piperidin-1-yl]-1,3-thiazole-5-carboxylate] |
